In US11186577B2, “Vasopressin receptor antagonists and products and methods related thereto” (BlackThorn Therapeutics, Inc., priority 2017, dated 2021):
Like-named read-outs stand apart in the source and are kept apart here.

What was measured:
[1] = target: V1a receptors (Rattus norvegicus (Rat), UniProt P30560); assay: Arginine-Vasopressin (AVP) induced phospho-Erk measurement in rat choroid plexus (RCP) cells; type: cell-based
Text: When V1a receptors are coupled to phospholipase C (PLC), they increase intracellular Ca2+ concentrations and protein kinase C (PKC) activity, and transactivate the mitogen-activated protein kinases/extracellular signal-regulated kinase (MAPK/Erk) and PI3 kinase/Akt pathways upon activation (Chen et al., J Neuroendocrinol. 2010). Rat choroid plexus (RCP) cell lines express functional V1a receptors measured by increased calcium concentrations in response to V1a receptor agonists (Battle et al., Biochem Biophys Res Comm 2000).
RCP P9(18) cells were seeded 30K/well, in 100 μl growth medium containing 10% FBS in polystyrene 96-well plates and incubated at 37° C., 5% CO2 and incubated overnight. The following day, the growth medium was replaced with 50 μl pre-warmed HBSS containing 20 mM HEPES and the cells were incubated at 37° C., 5% CO2 for 1.5 hrs. 1 mM AVP (Sigma V9879) was freshly prepared in distilled water in a glass vial, and diluted to 3× concentrations in HBSS containing 20 mM HEPES and 0.1% BSA in glass vials and kept on ice. Cells were treated with 25 μl 3× vehicle, 3× eBioscience Cell Stimulation Cocktail (Thermo Fisher Scientific 00-4970-93) or 3×AVP and incubated at 37° C., 5% CO2 for 5, 10 or 20 min. Final concentrations of AVP: 10, 100 or 1000 nM. Final concentrations of components in Cell Stimulation Cocktail: 81 nM PMA, 1.34 μM ionomycin, 0.2% ethanol. Cells were lysed with 25 μl 4×CST lysis buffer containing protease and phosphatase inhibitors, PMSF and SDS and then stored at −80° C., for 48 h. The lysates were thawed, centrifuged at 2000 g for 30 min at 4° C. and 40 μl supernatants assayed for pERK1/2 (Thr202/Tyr204; Thr185/Tyr187) and total ERK1/2 using MSD kit K15107D. The MSD ECL data for the lysates were corrected for no cell blanks, then phospho-protein levels expressed as a ratio to the total ERK1/2 level. The ratios were expressed as fold-change from the vehicle-treated control at each timepoint.

[2] = tested on: MDR1-MDCK cells; assay: MDR1-MDCK effective efflux assay (Transwell, 10 μM, 1 hour), MDR1-MDCK cells; type: in vitro ADME; conditions: for MDR1 EER / MDR1 ER: MDCK-MDR1
Outline: (§1)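 Wild-type and MDR1-MDCK monolayers cultured 3 days were dosed with compound at 10 μM (0.1% DMSO) in HBSS/25 mM HEPES pH 7.4, in both A>B and B>A directions, for 1 h at 37 °C. Samples were quantified by LC-MS/MS to give Papp and efflux ratio. Effective efflux ratio = ER(MDR1-MDCK)/ER(wild-type); Lucifer Yellow checked monolayer integrity.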

[3] = tested on: wild-type (WT) MDCK cells; assay: MDR1-MDCK effective efflux assay (Transwell, 10 μM, 1 hour), wild-type MDCK cells; type: in vitro ADME; conditions: for WT ER: MDCK
Outline: as §1

[4] = tested on: CD-1 mice; assay: Arginine-Vasopressin (AVP) induced behavior in mouse (i.c.v. AVP, scratching, digging, grooming); type: in vivo; conditions: 100 mg/kg, po
Experimental: Administration of Arginine-Vasopressin (AVP) intracerebroventricularly (i.c.v.) elicits characteristic scratching, digging and grooming behavior in mice that can be measured readily and is sensitive to blockade with vasopressin antagonists (Meisenberg, 1988; Bleickart et al., 2009).
Male CD-1 mice (Charles River Germany) weighing 22-25 g upon the study in-life are used for this study. Animals are housed in groups of 4-5 per cage in standard temperature (22±1° C.) and light-controlled environment (lights on from 7 am to […]), with ad libitum access to food and water. Prior to commencing any procedures to the mice, they are allowed to habituate in the vivarium for a minimum of 7 days.
Anesthesia is induced in a plexiglass chamber for 2-3 min with 5% isoflurane, and maintained through a snout mask with 1-2% isoflurane thereafter. A homeothermic blanket system with a rectal probe is used to monitor and maintain the animal's body temperature at 37.0° C.±1.5° C. during the operation. […] The actual coordinates are calculated by the distance from the point in midline between the eyes and no skin incision is made. […]
Mice are observed and video-recorded for 15 minutes following AVP/saline administration and behaviors are measured (in seconds) and a cumulative time is calculated. […]

[5] = in vitro; conditions: dog, MDCK
[6] = tested on: MDR1 (P-gp); assay: in vitro; conditions: dog, MDCK-MDR1
[7] = tested on: MDR1 (P-glycoprotein); assay: MDR1-MDCK effective efflux assay (Transwell, 10 μM, 1 hour), MDR1-MDCK cells; type: in vitro ADME; conditions: dog, MDCK-MDR1, pH 7.4, Papp AB MDR1
Outline: as §1

[8] = MDR1-MDCK effective efflux assay (Transwell, 10 μM, 1 hour), wild-type MDCK cells; type: in vitro ADME; conditions: dog, MDCK, pH 7.4, Papp AB WT
Outline: as §1

[9] = second study, read-out: IC50, AVP induced pERK1/2 to total ERK1/2
[10] = study 1, read-out: IC50, AVP induced pERK1/2 to total ERK1/2

Sequence of V1a receptors (P30560 whole entry): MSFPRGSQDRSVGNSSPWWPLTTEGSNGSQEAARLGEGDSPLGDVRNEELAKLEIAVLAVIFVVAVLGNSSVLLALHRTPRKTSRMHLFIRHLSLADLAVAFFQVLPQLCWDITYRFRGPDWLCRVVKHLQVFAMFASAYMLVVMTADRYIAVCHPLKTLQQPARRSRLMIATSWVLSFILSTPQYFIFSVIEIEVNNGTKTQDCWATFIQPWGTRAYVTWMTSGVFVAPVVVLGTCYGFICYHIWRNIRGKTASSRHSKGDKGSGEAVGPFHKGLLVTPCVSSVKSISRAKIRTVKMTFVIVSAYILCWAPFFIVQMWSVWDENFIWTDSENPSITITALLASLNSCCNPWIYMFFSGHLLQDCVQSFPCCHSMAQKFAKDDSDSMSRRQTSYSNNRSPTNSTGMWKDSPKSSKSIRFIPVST

Compound | IC50 [1, 9] [µM] | IC50 [1, 10] [µM] | Papp AB MDR1 ([2]; MDR1-MDCK cells, apical to basolateral (A>B), 10 μM, 1 hour) | Papp AB WT ([3]; wild-type MDCK cells, apical to basolateral (A>B), 10 μM, 1 hour) | antagonist activity to AVP-induced scratching behaviors [4] | Papp A→B at 2 h [5] [×10⁻⁶ cm/s] | Papp A→B at 2 h [6] [×10⁻⁶ cm/s] | Papp A→B at 1 h, 10 μM [7] [×10⁻⁶ cm/s] | MDR1 EER [2] | MDR1 ER [2] | WT ER [3] | Papp A→B at 1 h, 10 μM [8] [×10⁻⁶ cm/s]
COC(=O)N1Cc2cc(Cl)ccc2-n2c(C3CC4(C3)CN(c3ccc(F)cn3)C4)nnc2C1C (single isomer, unassigned) [142A] | 0.02 | 0.016 | ++++ ((++++) denotes >20 (10^-6 cm/sec)) | ++++ ((++++) denotes >20 (10^-6 cm/sec)) |  |  |  |  |  |  |  | 
CN1Cc2cc(Cl)ccc2-n2c(nnc2[C@H]2CC[C@H](Oc3ccccn3)CC2)C1 [balovaptan, reference compound] | 0.0567 | 0.0856 |  |  | effective | 10 to 20 | > 20 |  |  |  |  | 
Clc1ccc2c(c1)CN(C1COC1)Cc1nnc(C3CC4(C3)CN(c3ccccn3)C4)n1-2 [compound 57, 8-chloro-5-(oxetan-3-yl)-1-(2-(pyridin-2-yl)-2-azaspiro[3.3]heptan-6-yl)-5,6-dihydro-4H-benzo[f][1,2,4]triazolo[4,3-a][1,4]diazepine] |  |  |  |  |  |  |  | < 7 | + | + | +++ | > 20
CC1c2nnc(C3CC4(C3)CN(c3cnccn3)C4)n2-c2ccc(Cl)cc2CN1C(=O)C1(F)CC1 (stereo not drawn) [compound 177] |  |  |  |  |  |  |  | < 7 | + | + | +++ | > 20
CC(C)C(=O)N1Cc2cc(Cl)ccc2-n2c(nnc2C2CC3(C2)CN(c2ccccn2)C3)C1 [compound 71] |  |  |  |  |  |  |  | < 7 | + | + | ++++ | > 20
O=C(N1Cc2cc(Cl)ccc2-n2c(nnc2C2CC3(C2)CN(c2cnccn2)C3)C1)C1(F)CC1 [compound 81] |  |  |  |  |  |  |  | 7 to 10 | + | + | +++ | > 20
CCC(=O)N1Cc2cc(Cl)ccc2-n2c(nnc2C2CC3(C2)CN(c2ccccn2)C3)C1 [compound 67] |  |  |  |  |  |  |  | < 7 | + | + | +++ | > 20
CC1c2nnc(C3CC4(C3)CN(c3ncc(F)cn3)C4)n2-c2ccc(Cl)cc2CN1C(=O)OC(CF)CF (stereo not drawn) [compound 194] |  |  |  |  |  |  |  | 10 to 20 | + | + | ++++ | 10 to 20
CCOC(=O)N1Cc2cc(Cl)ccc2-n2c(C3CC4(C3)CN(c3ncc(F)cn3)C4)nnc2C1C (stereo not drawn) [compound 172] |  |  |  |  |  |  |  | > 20 | ++ | ++ | ++++ | > 20
CC(C)OC(=O)N1Cc2cc(Cl)ccc2-n2c(nnc2C2CC3(C2)CN(C(=O)C2CC2)C3)C1 [compound 153] |  |  |  |  |  |  |  | < 7 | + | + | ++ | > 20
COC(=O)N1Cc2cc(Cl)ccc2-n2c(C3CC4(C3)CN(c3ccc(F)cn3)C4)nnc2C1C (stereo not drawn) [compound 142, methyl 8-chloro-1-(2-(5-fluoropyridin-2-yl)-2-azaspiro[3.3]heptan-6-yl)-4-methyl-4H-benzo[f][1,2,4]triazolo[4,3-a][1,4]diazepine-5(6H)-carboxylate] |  |  |  |  |  |  |  | > 20 | + | ++ | ++++ | > 20
